Measurements: PubChem BioAssay AID1963973 (Molecular Pharmacology Branch, DTP, NCI, 2024)

System: 883617-216-R-J1-PDC tumor spheroids, viability
Experiment: Anticancer human tumor 883617-216-R-J1-PDC patient-derived bladder carcinoma cell line growth inhibition [PI3K]
Settings: spheroids with HUVEC and MSC; for IC50: curve of first compound; for viability, T/C: stronger effect = lower value
Procedure, shortened: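 High-throughput combination screen: PI3K inhibitors crossed with targeted small molecules on complex spheroids of tumor cells, HUVEC and MSCs at 37 degrees C, 5% CO2. Top concentration was at or near clinical Cmax (otherwise 10 microM), with half-log decrements.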

[1] = second compound 0.00316 µM, first compound 0.0316 µM
[2] = second compound 0.00316 µM, first compound 0.1 µM
[3] = second compound 0.00316 µM, first compound 0.316 µM
[4] = second compound 0.00316 µM, first compound 1 µM
[5] = second compound 0.00316 µM, first compound 3.16 µM
[6] = second compound 0.00316 µM, first compound 10 µM
[7] = second compound 0.01 µM, first compound 0.0316 µM
[8] = second compound 0.01 µM, first compound 0.1 µM
[9] = second compound 0.01 µM, first compound 0.316 µM
[10] = second compound 0.01 µM, first compound 1 µM
[11] = second compound 0.01 µM, first compound 3.16 µM
[12] = second compound 0.01 µM, first compound 10 µM
[13] = second compound 0.0316 µM, first compound 0.0316 µM
[14] = second compound 0.0316 µM, first compound 0.1 µM
[15] = second compound 0.0316 µM, first compound 0.316 µM
[16] = second compound 0.0316 µM, first compound 1 µM
[17] = second compound 0.0316 µM, first compound 3.16 µM
[18] = second compound 0.0316 µM, first compound 10 µM
[19] = second compound 0.1 µM, first compound 0.0316 µM
[20] = second compound 0.1 µM, first compound 0.1 µM
[21] = second compound 0.1 µM, first compound 0.316 µM
[22] = second compound 0.1 µM, first compound 1 µM
[23] = second compound 0.1 µM, first compound 3.16 µM
[24] = second compound 0.1 µM, first compound 10 µM
[25] = second compound 0.316 µM, first compound 0.0316 µM
[26] = second compound 0.316 µM, first compound 0.1 µM
[27] = second compound 0.316 µM, first compound 0.316 µM
[28] = second compound 0.316 µM, first compound 1 µM
[29] = second compound 0.316 µM, first compound 3.16 µM
[30] = second compound 0.316 µM, first compound 10 µM
[31] = second compound 1 µM, first compound 0.0316 µM
[32] = second compound 1 µM, first compound 0.1 µM
[33] = second compound 1 µM, first compound 0.316 µM
[34] = second compound 1 µM, first compound 1 µM
[35] = second compound 1 µM, first compound 3.16 µM
[36] = second compound 1 µM, first compound 10 µM
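Note: spheroids exposed to agents for 7 days before the viability read.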

Question: Which IC50 (second compound 0.00316 µM) does the source give for `CC(Cn1ccc(-c2ccc(C#N)c(Cl)c2)n1)NC(=O)c1cc(C(C)O)[nH]n1` (stereo unspecified) + COc1c(OCCCN2CCOCC2)ccc2c3n(c(=NC(=O)c4cnc(N)nc4)nc12)CCN3 here?
Answer: > 10000 nM

Question: And the IC50 (second compound 0.01 µM)?
Answer: > 10000 nM

Question: And the IC50 (second compound 0.0316 µM)?
Answer: < 31.6 nM

Question: And the IC50 (second compound 0.1 µM)?
Answer: < 31.6 nM

Question: And the IC50 (second compound 0.316 µM)?
Answer: < 31.6 nM

Question: What about the IC50 (second compound 1 µM) of the same molecule?
Answer: < 31.6 nM

Question: And the viability, T/C [1]?
Answer: 74.1%

Question: And the viability, T/C [2]?
Answer: 75.2%

Question: And the viability, T/C [3]?
Answer: 83.8%

Question: And the viability, T/C [4]?
Answer: 96.2%

Question: What about the viability, T/C [5] of the same molecule?
Answer: 83.8%

Question: What about the viability, T/C [6] of the same molecule?
Answer: 79.3%

Question: And the viability, T/C [7]?
Answer: 68.8%

Question: What about the viability, T/C [8] of the same molecule?
Answer: 70.4%

Question: What about the viability, T/C [9] of the same molecule?
Answer: 70.3%

Question: What about the viability, T/C [10] of the same molecule?
Answer: 65.6%

Question: And the viability, T/C [11]?
Answer: 65.7%

Question: And the viability, T/C [12]?
Answer: 64.2%

Question: And the viability, T/C [13]?
Answer: 31.1%

Question: And the viability, T/C [14]?
Answer: 33%

Question: And the viability, T/C [15]?
Answer: 37.3%

Question: What about the viability, T/C [16] of the same molecule?
Answer: 29.4%

Question: And the viability, T/C [17]?
Answer: 35.7%

Question: What about the viability, T/C [18] of the same molecule?
Answer: 30.2%

Question: And the viability, T/C [19]?
Answer: 14.9%

Question: What about the viability, T/C [20] of the same molecule?
Answer: 11%

Question: What about the viability, T/C [21] of the same molecule?
Answer: 14.6%

Question: And the viability, T/C [22]?
Answer: 19%

Question: What about the viability, T/C [23] of the same molecule?
Answer: 13.3%

Question: And the viability, T/C [24]?
Answer: 11.6%

Question: What about the viability, T/C [25] of the same molecule?
Answer: 5.01%

Question: And the viability, T/C [26]?
Answer: 4.53%

Question: And the viability, T/C [27]?
Answer: 4.26%

Question: What about the viability, T/C [28] of the same molecule?
Answer: 4.08%

Question: What about the viability, T/C [29] of the same molecule?
Answer: 5.69%

Question: What about the viability, T/C [30] of the same molecule?
Answer: 4.16%

Question: What about the viability, T/C [31] of the same molecule?
Answer: 3.17%

Question: What about the viability, T/C [32] of the same molecule?
Answer: 2.54%

Question: And the viability, T/C [33]?
Answer: 3.2%

Question: And the viability, T/C [34]?
Answer: 3.42%

Question: And the viability, T/C [35]?
Answer: 4.42%

Question: What about the viability, T/C [36] of the same molecule?
Answer: 4.01%

Question: With `CC1(C)CCC(Nc2ncc(C(F)(F)F)c(-c3c[nH]c4c(P(C)(C)=O)c(C#N)ccc34)n2)CN1` (stereo unspecified) + COc1c(OCCCN2CCOCC2)ccc2c3n(c(=NC(=O)c4cnc(N)nc4)nc12)CCN3 as the molecule, how does the IC50 (second compound 0.00316 µM) read?
Answer: < 31.6 nM

Question: What about the IC50 (second compound 0.01 µM) of the same molecule?
Answer: < 31.6 nM

Question: What about the IC50 (second compound 0.0316 µM) of the same molecule?
Answer: < 31.6 nM

Question: What about the IC50 (second compound 0.1 µM) of the same molecule?
Answer: < 31.6 nM

Question: What about the IC50 (second compound 0.316 µM) of the same molecule?
Answer: < 31.6 nM

Question: And the IC50 (second compound 1 µM)?
Answer: < 31.6 nM

Question: What about the viability, T/C [1] of the same molecule?
Answer: 30.3%

Question: And the viability, T/C [2]?
Answer: 35%

Question: What about the viability, T/C [3] of the same molecule?
Answer: 33%

Question: And the viability, T/C [4]?
Answer: 32.9%

Question: What about the viability, T/C [5] of the same molecule?
Answer: 13.7%

Question: What about the viability, T/C [6] of the same molecule?
Answer: 0.49%

Question: And the viability, T/C [7]?
Answer: 31.4%

Question: And the viability, T/C [8]?
Answer: 29.6%

Question: What about the viability, T/C [9] of the same molecule?
Answer: 24.3%

Question: What about the viability, T/C [10] of the same molecule?
Answer: 23.4%

Question: And the viability, T/C [11]?
Answer: 15.2%

Question: And the viability, T/C [12]?
Answer: 1.02%

Question: What about the viability, T/C [13] of the same molecule?
Answer: 20.4%

Question: What about the viability, T/C [14] of the same molecule?
Answer: 22.8%

Question: What about the viability, T/C [15] of the same molecule?
Answer: 24.7%

Question: What about the viability, T/C [16] of the same molecule?
Answer: 21.6%

Question: And the viability, T/C [17]?
Answer: 9.22%

Question: What about the viability, T/C [18] of the same molecule?
Answer: 0.59%

Question: And the viability, T/C [19]?
Answer: 15.2%

Question: What about the viability, T/C [20] of the same molecule?
Answer: 12.5%

Question: What about the viability, T/C [21] of the same molecule?
Answer: 12.8%

Question: What about the viability, T/C [22] of the same molecule?
Answer: 10.9%

Question: What about the viability, T/C [23] of the same molecule?
Answer: 6.57%

Question: What about the viability, T/C [24] of the same molecule?
Answer: 1.66%

Question: What about the viability, T/C [25] of the same molecule?
Answer: 5.18%

Question: What about the viability, T/C [26] of the same molecule?
Answer: 4.62%

Question: What about the viability, T/C [27] of the same molecule?
Answer: 4.01%

Question: And the viability, T/C [28]?
Answer: 4.88%

Question: And the viability, T/C [29]?
Answer: 1.53%

Question: What about the viability, T/C [30] of the same molecule?
Answer: 0.09%

Question: What about the viability, T/C [31] of the same molecule?
Answer: 2.28%

Question: And the viability, T/C [32]?
Answer: 1.83%

Question: And the viability, T/C [33]?
Answer: 1.8%

Question: And the viability, T/C [34]?
Answer: 1.55%

Question: And the viability, T/C [35]?
Answer: 0.47%

Question: And the viability, T/C [36]?
Answer: 0.27%

Question: Which IC50 (second compound 0.00316 µM) does the source give for `Cn1nccc1Nc1nccc(-c2ccn(C(CO)c3ccc(Cl)c(F)c3)c(=O)c2)n1` (stereo unspecified) + COc1c(OCCCN2CCOCC2)ccc2c3n(c(=NC(=O)c4cnc(N)nc4)nc12)CCN3 here?
Answer: 3300 nM

Question: What about the IC50 (second compound 0.01 µM) of the same molecule?
Answer: 335 nM

Question: What about the IC50 (second compound 0.0316 µM) of the same molecule?
Answer: < 31.6 nM

Question: And the IC50 (second compound 0.1 µM)?
Answer: < 31.6 nM

Question: And the IC50 (second compound 0.316 µM)?
Answer: < 31.6 nM

Question: And the IC50 (second compound 1 µM)?
Answer: < 31.6 nM

Question: What about the viability, T/C [1] of the same molecule?
Answer: 83.4%

Question: What about the viability, T/C [2] of the same molecule?
Answer: 76.7%

Question: What about the viability, T/C [3] of the same molecule?
Answer: 64.6%

Question: And the viability, T/C [4]?
Answer: 65%

Question: What about the viability, T/C [5] of the same molecule?
Answer: 47.9%

Question: And the viability, T/C [6]?
Answer: 40.4%

Question: And the viability, T/C [7]?
Answer: 59.4%

Question: What about the viability, T/C [8] of the same molecule?
Answer: 59.5%

Question: What about the viability, T/C [9] of the same molecule?
Answer: 51%

Question: What about the viability, T/C [10] of the same molecule?
Answer: 40.4%

Question: What about the viability, T/C [11] of the same molecule?
Answer: 39.9%

Question: What about the viability, T/C [12] of the same molecule?
Answer: 33.8%

Question: And the viability, T/C [13]?
Answer: 39.3%

Question: What about the viability, T/C [14] of the same molecule?
Answer: 33.5%

Question: What about the viability, T/C [15] of the same molecule?
Answer: 26.7%

Question: And the viability, T/C [16]?
Answer: 27.8%

Question: What about the viability, T/C [17] of the same molecule?
Answer: 21.5%

Question: What about the viability, T/C [18] of the same molecule?
Answer: 14.3%

Question: And the viability, T/C [19]?
Answer: 12.8%

Question: What about the viability, T/C [20] of the same molecule?
Answer: 12.8%

Question: What about the viability, T/C [21] of the same molecule?
Answer: 10.5%

Question: What about the viability, T/C [22] of the same molecule?
Answer: 7.47%

Question: And the viability, T/C [23]?
Answer: 6.96%

Question: And the viability, T/C [24]?
Answer: 6.94%

Question: And the viability, T/C [25]?
Answer: 5.61%

Question: What about the viability, T/C [26] of the same molecule?
Answer: 3.51%

Question: And the viability, T/C [27]?
Answer: 4.13%

Question: And the viability, T/C [28]?
Answer: 1.85%

Question: What about the viability, T/C [29] of the same molecule?
Answer: 1.07%

Question: What about the viability, T/C [30] of the same molecule?
Answer: 1.21%

Question: And the viability, T/C [31]?
Answer: 2.27%

Question: And the viability, T/C [32]?
Answer: 1.46%

Question: What about the viability, T/C [33] of the same molecule?
Answer: 0.6%

Question: What about the viability, T/C [34] of the same molecule?
Answer: 0.25%

Question: And the viability, T/C [35]?
Answer: 0.12%

Question: What about the viability, T/C [36] of the same molecule?
Answer: 0.12%
